Patent US4137380A, “Polyester granules and process” (priority 1972, dated 1979)
Read-outs that look alike come from different tables or passages of the source.

Legend:
[1] = Relative water solubility of amine; details: amine base
[2] = Dissociation constant in water (pKa value) of amine; assay type: physicochemical
From the text: If more than one type of amine group is present in the molecule then the relevant pKa value is that of the most basic amine group.

[3] = amine base, in water, read-out: pKa

| pKa ([2]; water) | Molecule | Rel. W. Sol [1] | pKa [2, 3] |
| --- | --- | --- | --- |
|  | Cc1ccccc1N [o-toluidine] | insoluble | 6 |
|  | NCCN [ethylene diamine] | high |  |
|  | Nc1ccccc1 [aniline] | insoluble |  |
| 5.4 | vinyl pyridine |  |  |
|  | CCN [ethylamine] | high |  |
| 11.8 | NCCCCCCCCCCCCN [dodecylene diamine] | insoluble |  |
|  | C=C(C)C(=O)OCCN(C)C [DMAEMA, dimethylaminoethylmethacrylate] | high | 5.4 |
